For series [1], the target named is T1, hERG channel (Homo sapiens, UniProt Q12809).
T1 construct: purchased Invitrogen (Carlsbad, Calif.)
As to the kind of experiment: hERG fluorescence polarization Predictor Assay. Set-up: dose or concentration left out as unconfirmed. Format: binding. The text has this: Inhibition of the hERG channel is undesirable. Checking for hERG blockage is an integral step in the drug discovery cycle. The presently disclosed method is well-suited for high-throughput measurements based on fluorescence polarization (FP) as implemented in the Predictor Assay by Invitrogen (Carlsbad, Calif.). This assay is based on the principle that a fluorescent tracer upon binding to the hERG channel will induce an increase in the FP signal that will diminish when an inhibitor displaces the interaction between the tracer and the hERG channel.
FP measurements for IPR-1 and IPR-69 were performed using an EnVision (PerkinElmer) plate reader at an excitation of 540 nm and emission at 573 nm. […] At the highest concentration of 25 μM, which is near its biological activity in tumor cells, 60% blockage is detected.

For series [2], the system named is salmon sperm DNA. As to the kind of experiment: Fluorescent Intercalator Displacement assay (ethidium bromide). Format: binding. Set-up: displacement of ethidium bromide: dose or concentration left out as unconfirmed. The following applies: for displacement of ethidium bromide: […] μM; for DNA binding: three concentrations tested. The method, then: Finally, DNA binding by these three compounds was assessed. DNA binding is often a reflection of non-specificity, which can lead to adverse side effects. The well-established Fluorescent Intercalator Displacement assay by Tse et al.^43 that measures displacement of ethidium bromide, a known intercalator of DNA was used. In this assay, ethidium bromide (EB) bound to the salmon sperm DNA.

Series [3] has as its target T2, uPAR (Homo sapiens, UniProt Q03405).
T2 construct: human uPAR (suPAR, amino acids 1-283) was expressed in stably transfected Drosophila S2 cells; made in house; host or cells: Drosophila S2 cells
As to the kind of experiment: Fluorescence polarization assay, displacement of AE147-FAM peptide from uPAR. Format: binding. The method, then:
Fluorescence Polarization Assay. The fluorescence polarization assay used fluorescent AE147-FAM peptide. uPAR was titrated against the fluorescent AE147-FAM peptide and data were fit to a sigmoidal dose-dependent curve as the FP value increases to determine the Kd of binding using Sigmaplot (Systat Software Inc., CA). Inhibitor screens were carried out in triplicates using 500 nM uPAR, 100 nM AE147-FAM, and inhibitor concentrations ranging from 0.78 μM to 100 μM in 50 μL volumes in black BD Falcon 384-well microplate. […] Polarized fluorescence intensities were measured immediately following addition of inhibitors to the protein-peptide mix at room temperature on an EnVision® Multilabel Plate Readers (PerkinElmer) with excitation and emission wavelengths of 485 nm and 530 nm, respectively.
Cloning, Expression and Purification of uPAR. uPAR was successfully cloned, expressed and purified. From 1 L of culture, nearly 12 mg of protein was expressed, which will be sufficient to conduct the experiments disclosed herein. Briefly, a truncated, soluble form of human uPAR (suPAR, amino acids 1-283) was expressed in stably transfected Drosophila S2 cells using the Drosophila Expression System (Invitrogen). suPAR was obtained by a two-step purification process. The conditioned culture medium was filtered (0.45 μm) and loaded onto a DEAE Sephadex column equilibrated with 20 mM Tris (pH 7.4). The protein was eluted with a gradient of 0-1 M NaCl in 20 mM Tris (pH 7.4). suPAR containing fractions were then pooled, concentrated, and filtered prior to RP-HPLC using a semi-preparative (10×25 cm) C8 column. A 1 mL aliquot of the concentrated protein was loaded onto the column at initial gradient conditions of 95% eluent A and 5% eluent B, where eluent A was 0.1% TFA/100% H2O and eluent B was 70:30 acetonitrile/[…]. The protein elutes using a gradient of 5% eluent A to 95% eluent B over 46 minutes at a flow rate of 4 mL/min. Under these conditions, the protein eluted as a single sharp peak (tR=29 min). […] Surface plasmon resonance confirmed that the purified uPAR was capable of binding to uPA. The identity of the 60 kDa band was established by immunoblot (not shown).
The design of a fluorescent probe was guided by the three-dimensional structure of uPAR in complex with peptide AE147.^27 As this peptide binds at the same site that is occupied by the growth factor-like domain of uPA, it provides the basis for the development of a competition assay to assess binding to this site. Flurescein was introduced to the N-terminus of AE147.
All 210 compounds were screened at initial concentration of 50 μM for displacement of AE147-FAM peptide. Eleven compounds gave polarization readings that were five times that of the standard deviation of the control peptide (FIG. 1B). Secondary concentration-dependent study for these eleven compounds was performed.
The resulting inhibition curves were used to determine an inhibition constant, Ki, for each.

Series [4] deals with human umbilical vein endothelial cells (HUVEC). Nature of the series: Matrigel-based tube formation (angiogenesis) assay. Format: cell-based. As to conditions: HUVEC in Matrigel.
The subject of series [5] is phospho-p44/42 MAPK. As to the kind of experiment: Immunoblot of MAPK phosphorylation in MDA-MB-231 cells. Format: cell-based, human. As to conditions: 100 μM, 30 minutes. The method, then: Immunoblots. MDA-MB-231 cells treated with 100 μM of compound(s)/1% DMSO for 30 min. Harvested cell lysates in RIPA buffer supplemented with protease inhibitors and phosphatase inhibitors. Under non-reducing condition equal amounts of protein were loaded per lane and separated in 4-12% NuPAGE gel (Invitrogen) at 200 V for 60 minutes, then transferred to Nitrocellulose membrane at 30 V for one hour using XCell II blot module. […] Secondary antibody: goat anti-rabbit IgG HRP 1:3000 in 5% non-fat milk-TBST at room for 1 hour. The protein bands were visualized using Immobilon Western Chemiluminescent HRP Substrate (WBKLS0100, Millipore, Billerica, Mass.). Fibronectin (Sigma, F2006) […] coated in 6-well plates overnight. MDA-MB-231serum-starved for 4 hours and then seeded in FN coated 6-well plates and treated with 5,10, 20 and 40 μM compound(s)/1% DMSO for 30 min, cells were lysated in RIPA buffer supplemented with protease inhibitors and phosphatase inhibitors. Then IB with phospho-p44/42 MAPK (Thr202/Tyr204), p44/42 MAPK; phospho-FAK (Tyr397), FAK; phospho-Src family (Tyr416), Src, respectively.
A concentration-dependent study was subsequently carried out for IPR-1 (FIG. 6B). […] The effect of the compound also was studied in two other signaling pathways including FAK and Src. FAK is constitutively associated with β-integrin subunits of integrin receptors.

pIC50, pKi: −log10 of the molar value. “Also recorded” adds a separate entry of the source. Where two headings read alike, the source gives them in different places.

T2 sequence (Q03405 23-305): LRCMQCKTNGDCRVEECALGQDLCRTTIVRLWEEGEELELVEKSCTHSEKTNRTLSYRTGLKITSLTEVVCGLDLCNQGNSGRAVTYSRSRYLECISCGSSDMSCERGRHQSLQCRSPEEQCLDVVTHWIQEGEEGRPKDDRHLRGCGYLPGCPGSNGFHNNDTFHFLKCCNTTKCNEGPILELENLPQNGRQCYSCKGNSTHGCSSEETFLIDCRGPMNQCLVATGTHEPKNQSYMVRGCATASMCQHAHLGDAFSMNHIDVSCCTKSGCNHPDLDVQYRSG
T1 sequence (Q12809 whole entry): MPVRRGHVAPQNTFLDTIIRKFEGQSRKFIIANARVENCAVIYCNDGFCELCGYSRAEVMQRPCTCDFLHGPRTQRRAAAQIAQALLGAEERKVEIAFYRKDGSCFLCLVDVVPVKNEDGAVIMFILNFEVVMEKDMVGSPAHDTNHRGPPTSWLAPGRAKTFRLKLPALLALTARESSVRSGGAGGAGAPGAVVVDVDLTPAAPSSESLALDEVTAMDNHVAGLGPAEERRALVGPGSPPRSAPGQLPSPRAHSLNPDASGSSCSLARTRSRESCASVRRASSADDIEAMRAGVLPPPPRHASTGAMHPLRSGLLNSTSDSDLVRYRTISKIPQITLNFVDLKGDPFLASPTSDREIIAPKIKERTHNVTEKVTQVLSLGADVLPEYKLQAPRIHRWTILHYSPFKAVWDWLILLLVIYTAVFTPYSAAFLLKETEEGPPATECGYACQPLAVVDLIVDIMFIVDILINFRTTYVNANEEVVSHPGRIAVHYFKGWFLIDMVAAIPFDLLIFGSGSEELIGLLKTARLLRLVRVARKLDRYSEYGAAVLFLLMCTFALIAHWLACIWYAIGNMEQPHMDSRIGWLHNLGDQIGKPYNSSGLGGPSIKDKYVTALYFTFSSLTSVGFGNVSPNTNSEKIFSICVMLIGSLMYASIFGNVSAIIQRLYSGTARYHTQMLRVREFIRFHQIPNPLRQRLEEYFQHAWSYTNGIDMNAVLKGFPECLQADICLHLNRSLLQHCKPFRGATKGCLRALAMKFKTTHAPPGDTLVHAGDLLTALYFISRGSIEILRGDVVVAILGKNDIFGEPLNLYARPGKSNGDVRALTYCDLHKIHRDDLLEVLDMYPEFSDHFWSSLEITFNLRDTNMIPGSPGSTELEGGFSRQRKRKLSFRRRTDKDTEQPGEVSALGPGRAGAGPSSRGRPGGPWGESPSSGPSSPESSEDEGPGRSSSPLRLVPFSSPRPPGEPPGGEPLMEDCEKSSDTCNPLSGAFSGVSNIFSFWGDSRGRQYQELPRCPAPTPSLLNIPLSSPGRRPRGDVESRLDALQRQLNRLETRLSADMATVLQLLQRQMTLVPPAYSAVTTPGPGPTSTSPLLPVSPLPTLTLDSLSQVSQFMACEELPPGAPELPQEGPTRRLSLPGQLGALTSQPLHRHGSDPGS

Turning to `CN(C)c1ccc(CNCCC(Cc2ccccc2)c2ccc3c(c2)OCO3)cc1` (racemic) [IPR-9, 4-(((3-(benzo[d][1,3]dioxol-5-yl)-4-phenylbutyl)amino)methyl)-N,Ndimethylaniline], the “hERG channel blockage” value in series [1] (1, 10 and […] μM) is given as “even greater hERG K^+ channel blockage than the well-known channel blocker E-4031”. For the same molecule, in series [2], the “displacement of ethidium bromide” value was found to be 30% and the “DNA binding” value was “not strongly affected”. The molecule also had a pIC50 in series [3] (Table 1, assay not stated) of 4.61. For the same molecule, in series [3] (Table 1, assay not stated, read-out: Ki), the pKi is 5.13. This molecule also gave a pIC50 in series [4] of 5.52. Besides, the “effect on MAPK phosphorylation” value in series [5] is “significant impairment”.
`Cc1cc(C)cc(NC(=O)c2cnn(-c3ccc(C(C)C)cc3)c2C2CCNCC2)c1` [IPR-69, N-(3,5-dimethylphenyl)-1-(4-isopropylphenyl)-5-(piperidin-4-yl)-1H-pyrazole-4-carboxamide]: the hERG blockage in series [1] ([…] μM) is 60%. In addition, in series [2], the “displacement of ethidium bromide” value is on record as “less than 10%” and the “DNA binding” value is “not strongly affected; also recorded: no DNA binding”. The pKi in series [3] (from concentration-dependent inhibition curves, read-out: inhibition constant, Ki) was 4.52. For the same molecule, the pIC50 in series [4] was 5.52. In series [5], the “effect on MAPK phosphorylation” value was “abrogated phosphorylation, but the effects were weaker than IPR-9”.

In general, pIC50 refers to the IC50 on a negative log10 scale, so that one unit is a factor of ten. A word on the pKi: it is the Ki on a negative log10 scale, so that one unit is a factor of ten.
